According to patent US8865741B2, “Aminoindane compounds and use thereof in treating pain” (Asana Biosciences, LLC, priority 2011, dated 2014):

Test system: sodium channel in hTRPV1-N1E115 cells
Experiment: FLIPR membrane potential assay of sodium channel response in hTRPV1-N1E115 cells, with (47° C.) or without (25° C.) heat activation of hTRPV1
Type: cell-based
Conditions: for hTRPV1-N1E Nav 0.1 mM (% inhibition) 25° C. / hTRPV1-N1E Nav 1 mM (% inhibition) 25° C.: 25° C. (no heat activation of hTRPV1); for hTRPV1-N1E Nav 0.1 mM (% inhibition) 47° C. / hTRPV1-N1E Nav 1 mM (% inhibition) 47° C.: 47° C. (heat activation of hTRPV1); for IC50: class symbols, read-out: hTRPV1-N1E IC50 (μM) 47° C.
Source text: In one embodiment, a modified FLIPR® (Fluorometric Imaging Plate Reader) based assay system was developed which is capable of discriminating between non-specific versus hTRPV1-mediated entry of test compounds. Advantageously, the assay system utilizes heat activated opening of hTRPV1 channels followed by an assessment of internal sodium channel block. The assay allows a permanently charged compound to selectively enter through opened hTRPV1 channels and that compound's potency in inhibiting sodium channels from the cytoplasm side of the same cell can be assessed and quantified.
The assay is readily performed in multi-well assay plates into which cells in growth media are added and incubated under conditions which permit the formation of a confluent monolayer over a period of hours prior to the start of the assay. Conventional culture media and conditions may be utilized. Duplicate cell assay plates are prepared for each experiment.
The spent media from the cell seeded plates is removed on the day of the assay and replaced with Membrane potential Dye-Blue (Molecular Devices). The dye was prepared in assay buffer following manufacturer's instructions. The dye-loaded plate is incubated at room temperature (about 25° C.) for about 30 minutes in order to pre-load the cells with dye. Optionally, the cells may be loaded with the dye simultaneously with adding the test compounds.
The test compounds are diluted in the Assay Buffer and added to each well of a specific 384-well ‘compound plate’, which serves as a source plate for compound addition using the FLIPR® platform. The concentration of compounds in the compound-plate was adjusted to achieve the desired final concentration when added to the cells in the ‘cell-plate’. After completion of the dye incubation period, the dye loaded cell-plates and the compound source plates are inserted into the FLIPR® Tetra™ device with a 384 FLIPR® tip box (Molecular Devices, Inc.) according to manufacturer's instructions. The compounds are robotically added to the dye loaded cell-plates using software integral to the FLIPR® Tetra™ instrument.
Immediately following compound addition, hTRPV1 is activated, in one of the duplicate cell plates, by heating. Specifically, entire multi-well plate containing the compound-cells mixture is incubated at 47° C. for 10 minutes, after which they are returned to room temperature (about 25° C.) for a further 30 minutes. Heat activation of hTRPV1 was omitted from the replicate cell plate which was simply maintained at room temperature for the entire 40 minutes.
A membrane potential response is elicited in the dye- and compound-loaded cells by the addition of veratridine which is a known sodium channel ‘agonist’. As illustrated in an example herein, an agonist plate containing veratridine (Sigma) is prepared in advance and is inserted into suitable devices such as, e.g., the FLIPR® TETRA® device for a “2nd addition” as instructed by the manufacturer. The concentration of veratridine in the ‘agonist plate’ was adjusted to achieve a final concentration of 100 μM when added to the cells in the cell-plate. Final concentrations of veratridine greater or lesser than 100 μM may also be used but the signal measured by the FLIPR®^Tetra™ device or another suitable device may vary accordingly.
The exposure of the cells in the cell-plate to veratridine induces sodium channels in the cells to open and the resulting ion flux produces a membrane potential depolarization that is detected as a fluorescence signal by the FLIPR® ^Tetra™ Device. The activity of test compounds is determined by their ability to attenuate the veratridine-induced fluorescence signal, the most promising compounds are those that show an enhanced activity in the heat-activated cell plate over the non-heat-activated cell plate. […]

SMILES | IC50 (47° C.) [µM] | hTRPV1-N1E Nav 0.1 mM (% inhibition) 25° C. (0.1 mM) [%] | hTRPV1-N1E Nav 0.1 mM (% inhibition) 47° C. (0.1 mM) | hTRPV1-N1E Nav 1 mM (% inhibition) 25° C. | hTRPV1-N1E Nav 1 mM (% inhibition) 47° C. | hTRPV1-N1E Nav 0.1 mM (% inhibition) 25° C., DMSO (0.1 mM, DMSO, 25° C.) [%] | hTRPV1-N1E Nav 0.1 mM (% inhibition) 47° C., DMSO (0.1 mM, DMSO, 47° C.)
Cc1cccc(N(CC2CCCC[N+]2(C)C)C2Cc3ccccc3C2)c1.[I-] (stereo not drawn) [Example 29, 1,1-Dimethyl-2-[((indan-2-yl)(3-methylphenyl)amino)methyl]piperidinium iodide] |  | 68.9 | 82.9 (N = 2) % | 64.6 (N = 2) % | 75.3 (N = 2) % |  | 
C[N+]1(C)CCCCC1CN(c1cccc(F)c1)C1Cc2ccccc2C1.[I-] (stereo not drawn) [Example 31, 1,1-Dimethyl-2-[((3-fluorophenyl)(indan-2-yl)amino)methyl]piperidinium iodide] |  | 3.8 | 62.6 (N = 2) % | Insoluble | Insoluble |  | 
CC[N+]1(CC)CCCCC1CN(c1ccc(C)cc1)C1Cc2ccccc2C1.[I-] (stereo not drawn) [Example 30, 1,1-Diethyl-2-[((indan-2-yl)(4-methylphenyl)amino)methyl]piperidinium iodide] |  | 59.4 | 97.2 (N = 2) % | Insoluble | Insoluble |  | 
C[N+]1(C)CCCCC1CCCN(c1ccccc1)C1Cc2ccccc2C1.[I-] (stereo not drawn) [Example 7] | 10 to 100 | 27.3 | 57.9 (N = 2) % | Insoluble | Insoluble |  | 
C[N+]1(C)CCCCC1CCN(c1ccc(F)cc1)C1Cc2ccccc2C1.[I-] (stereo not drawn) [Example 15, 1,1-Dimethyl-2-[2-((4-fluorophenyl)(indan-2-yl)amino)ethyl]piperidinium iodide] | 10 to 100 | 2.8 | 75.2 (N = 3) % | 0.7 (N = 3) % | 35.0 (N = 3) % |  | 
CCC[N+]1(CCC)CCCC[C@H]1CCN(c1ccccc1)C1Cc2ccccc2C1.[I-] [Example 1, (S)-1,1-dipropyl-2-[2-((indan-2-yl)(phenyl)amino)ethyl]piperidinium iodide] |  |  |  |  |  | 56 | 87 (N = 4, DMSO) %
CC[N+]1(CC)CCCCC1CN(c1ccccc1)C1Cc2ccccc2C1.[I-] (stereo not drawn) [Example 13, 1,1-Diethyl-2-[((indan-2-yl)(phenyl)amino)methyl]piperidinium iodide] | 10 to 100 | 67 | 99 (N = 2) % | 64 (N = 2) % | 92 (N = 2) % |  | 
CC[N+]1(CC)CCCC1CCN(c1ccccc1)C1Cc2ccccc2C1.[I-] (stereo not drawn) [Example 36, 1,1-diethyl-2-[2-((indan-2-yl)(phenyl)amino)ethyl]pyrrolidinium iodide] | 10 to 100 | 5.4 | 74.0 (N = 2) % |  |  |  | 
Cc1ccc(N(CC2CCCC[N+]2(C)C)C2Cc3ccccc3C2)cc1.[I-] (stereo not drawn) [Example 27, 1,1-Dimethyl-2-[((indan-2-yl)(4-methylphenyl)amino)methyl]piperidinium iodide] |  | 68.1 | 81.3 (N = 2) % | 61.4 (N = 2) % | 71.9 (N = 2) % |  | 

Continued, in another order:

IC50 (47° C.) [µM] | SMILES | hTRPV1-N1E Nav 0.1 mM (% inhibition) 25° C. (0.1 mM) [%] | hTRPV1-N1E Nav 0.1 mM (% inhibition) 47° C. (0.1 mM) | hTRPV1-N1E Nav 1 mM (% inhibition) 25° C. | hTRPV1-N1E Nav 1 mM (% inhibition) 47° C. | hTRPV1-N1E Nav 0.1 mM (% inhibition) 25° C., DMSO (0.1 mM, DMSO, 25° C.) [%] | hTRPV1-N1E Nav 0.1 mM (% inhibition) 47° C., DMSO (0.1 mM, DMSO, 47° C.)
10 to 100 | C[N+]1(C)CCCCC1CCN(c1cccc(F)c1)C1Cc2ccccc2C1.[I-] (stereo not drawn) [Example 14, 1,1-dimethyl-2-[2-((3-fluorophenyl)(indan-2-yl)amino)ethyl]piperidinium iodide] | 6.3 | 76.7 (N = 3) % | 3.8 (N = 3) % | 25.3 (N = 3) % |  | 
10 to 100 | Cc1ccccc1N(CC[C@H]1CCCC[N+]1(C)C)C1Cc2ccccc2C1 [Example 35, (R)-1,1-Dimethyl-2-[2-((indan-2-yl)(2-methylphenyl)amino)ethyl]piperidinium iodide] |  |  |  |  |  | 
10 to 100 | Cc1ccccc1N(CCC1CCCC[N+]1(C)C)C1Cc2ccccc2C1 (stereo not drawn) [Example 50, 1,1-Dimethyl-2-[2-((indan-2-yl)(2-methylphenyl)amino)ethyl]piperidinium chloride] |  |  |  |  |  | 
10 to 100 | CC[N+]1(CC)CCCCC1CCN(c1cccc(F)c1)C1Cc2ccccc2C1.[I-] (stereo not drawn) [Example 17, 1,1-diethyl-2-[2-((3-fluorophenyl)(indan-2-yl)amino)ethyl]piperidinium iodide] | 1 | 86.1 (N = 3) % | 6.1 (N = 3) % | 28.9 (N = 3) % |  | 
10 to 100 | Cc1ccccc1N(CCC1CCCC[N+]1(CCO)CCO)C1Cc2ccccc2C1.[Br-] (stereo not drawn) [Example 46, 1,1-Bis(2-hydroxyethyl)-2-[2-((indan-2-yl)(2-methylphenyl)amino)ethyl]piperidinium bromide] | 31.8 | 94.4 (N = 2) % |  |  |  | 
10 to 100 | Cc1ccccc1N(CCC1CCCC[N+]12CCOCC2)C1Cc2ccccc2C1.[Cl-] (stereo not drawn) [Example 41, 7-[2-((indan-2-yl)(2-methylphenyl)amino)ethyl]-3-oxa-6-azaspiro[5.5]undecan-6-ium chloride] | 8.3 |  |  |  |  | 
10 to 100 | Cc1cccc(N(CCC2CCCC[N+]2(C)C)C2Cc3ccccc3C2)c1.[I-] (stereo not drawn) [Example 19, 1,1-Dimethyl-2-[2-((indan-2-yl)(3-methylphenyl)amino)ethyl]piperidinium iodide] | 0 | 87.9% | Insoluble | Insoluble |  | 
10 to 100 | C[N+]1(C)CCCCC1CCN(c1ccccn1)C1Cc2ccccc2C1.[I-] (stereo not drawn) [Example 37, 1,1-dimethyl-2-[2-((indan-2-yl)(pyridine-2-yl)amino)ethyl]piperidinium iodide] | 21.5 | 60.7 (N = 2) % | 59.5 (N = 2) % | 24.0 (N = 2) % |  | 
10 to 100 | Cc1cccc(N(CCC2CCCC[N+]2(C)C)C2Cc3ccccc3C2)n1.[I-] (stereo not drawn) [Example 47, 1,1-Dimethyl-2-[2-((indan-2-yl)(6-methylpyridine-2-yl)amino)ethyl]piperidinium iodide] | 30.7 | 79.5 (N = 2) % |  |  |  | 
10 to 100 | C[N+]1(C)CCCC1CCN(c1ccccc1)C1Cc2ccccc2C1.[I-] (stereo not drawn) [Example 5, 1,1-dimethyl-2-[2-((indan-2-yl)(phenyl)amino)ethyl]pyrrolidinium iodide] | 21 | 50 (N = 2) % |  |  |  | 
10 to 100 | CC[N+]1(CC)CCCCC1CCCN(c1ccccc1)C1Cc2ccccc2C1.[I-] (stereo not drawn) [Example 26, 1,1-Diethyl-2-[3-((indan-2-yl)(phenyl)amino)propyl]piperidinium iodide] | 44.6 | 64.7 (N = 2) % | Insoluble | Insoluble |  | 
10 to 100 | Cc1ccccc1N(CC[C@@H]1CCCC[N+]1(C)C)C1Cc2ccccc2C1 [Example 34, (S)-1,1-Dimethyl-2-[2-((indan-2-yl)(2-methylphenyl)amino)ethyl]piperidinium iodide] |  |  |  |  |  | 
